The values below come from US11897851B2, “Heterocyclic GLP-1 agonists” (Gasherbrum Bio, Inc., priority 2021, dated 2024).

The target of the test is T1, GLP-1 Receptor (Homo sapiens, UniProt P43220).
T1 construct: host or cells: HEK293/GLP1R/CRE-LUC (HEK293/CRE-Luc stably expressing the GLP-1 receptor)
T1 sequence (P43220 24-463, species assumed): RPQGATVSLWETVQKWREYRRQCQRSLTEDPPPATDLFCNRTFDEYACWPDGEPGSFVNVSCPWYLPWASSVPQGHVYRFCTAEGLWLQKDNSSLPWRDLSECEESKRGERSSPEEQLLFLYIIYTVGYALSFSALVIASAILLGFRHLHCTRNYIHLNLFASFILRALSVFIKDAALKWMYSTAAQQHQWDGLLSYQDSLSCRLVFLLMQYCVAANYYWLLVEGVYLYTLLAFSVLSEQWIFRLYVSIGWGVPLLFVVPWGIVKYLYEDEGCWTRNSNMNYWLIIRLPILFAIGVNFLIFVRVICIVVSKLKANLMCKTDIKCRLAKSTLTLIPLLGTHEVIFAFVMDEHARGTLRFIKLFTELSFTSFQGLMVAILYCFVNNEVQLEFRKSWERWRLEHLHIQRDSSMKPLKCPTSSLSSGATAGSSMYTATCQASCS
Kind of test: GLP-1R agonist cAMP stimulation assay (HEK293/GLP1R/CRE-LUC cells, Cisbio cAMP dynamic 2 kit).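 Note: compounds tested in half-log serial dilution, cAMP detected with cAMP-d2 and anti-cAMP cryptate antibody reagents after 1 h at room temperature.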 As to conditions: HEK293/CRE-Luc cell line stably expressing the GLP-1 Receptor; 1000 cells/well; 30 min at 37° C.; 0.5 mM IBMX, 0.1% BSA; read-out: GLP1R cAMP Stimulation DR: EC50. The format is cell-based.
Turning to `COC1(Cn2c(/C=C/C(=O)O)cnc2CN2CCC(c3cccc4c3OC(C)(c3ccc(Cl)cc3F)O4)CC2)CCC1` (stereo not drawn) [Compound 166, (E)-3-(2-((4-(2-(4-chloro-2-fluorophenyl)-2-methylbenzo[d][1,3]dioxol-4-yl)piperidin-1-yl)methyl)-1-((1-methoxycyclobutyl)methyl)-1H-imidazol-5-yl)acrylic acid], the EC50 (in general, the concentration giving half of the maximal effect) worked out at 0.069 nM. `CC1(c2ccc(Cl)cc2F)Oc2cccc(C3CCN(Cc4ncc(/C=C/C(=O)O)n4CC4CCC4(F)F)CC3)c2O1` (stereo not drawn) [Compound 167, (E)-3-(2-((4-(2-(4-chloro-2-fluorophenyl)-2-methylbenzo[d][1,3]dioxol-4-yl)piperidin-1-yl)methyl)-1-((2,2-difluorocyclobutyl)methyl)-1H-imidazol-5-yl)acrylic acid]: the EC50 was found to be 0.065 nM.

Consider `CC1(c2ccc(Cl)cc2F)Oc2cccc(C3CCN(Cc4ncc(/C=C/C(=O)O)n4CCOC(F)F)CC3)c2O1` (stereo not drawn) [Compound 168, (E)-3-(2-((4-(2-(4-chloro-2-fluorophenyl)-2-methylbenzo[d][1,3]dioxol-4-yl)piperidin-1-yl)methyl)-1-(2-(difluoromethoxy)ethyl)-1H-imidazol-5-yl)acrylic acid], for which the EC50 came to 0.046 nM. As for `C[C@@H](Cn1c(/C=C/C(=O)O)cnc1CN1CCC(c2cccc3c2O[C@@](C)(c2ccc(Cl)cc2F)O3)CC1)OC(F)F` [Compound 169a, (E)-3-(2-((4-((S)-2-(4-chloro-2-fluorophenyl)-2-methylbenzo[d][1,3]dioxol-4-yl)piperidin-1-yl)methyl)-1-((S)-2-(difluoromethoxy)propyl)-1H-imidazol-5-yl)acrylic acid], the figure is 0.16 nM. As to `C[C@H](Cn1c(/C=C/C(=O)O)cnc1CN1CCC(c2cccc3c2O[C@@](C)(c2ccc(Cl)cc2F)O3)CC1)OC(F)F` [Compound 169b, (E)-3-(2-((4-((S)-2-(4-chloro-2-fluorophenyl)-2-methylbenzo[d][1,3]dioxol-4-yl)piperidin-1-yl)methyl)-1-((R)-2-(difluoromethoxy)propyl)-1H-imidazol-5-yl)acrylic acid], the EC50 is 0.015 nM. On to `C[C@@H](Cn1c(/C=C/C(=O)O)cnc1CN1CCC(c2cccc3c2O[C@@](C)(c2ccc(Cl)cc2F)O3)CC1)OC1CC1` [Compound 170a, (E)-3-(2-((4-((S)-2-(4-chloro-2-fluorophenyl)-2-methylbenzo[d][1,3]dioxol-4-yl)piperidin-1-yl)methyl)-1-((S)-2-cyclopropoxypropyl)-1H-imidazol-5-yl)acrylic acid], for which the EC50 worked out at 2.5 nM. For `C[C@H](Cn1c(/C=C/C(=O)O)cnc1CN1CCC(c2cccc3c2O[C@@](C)(c2ccc(Cl)cc2F)O3)CC1)OC1CC1` [Compound 170b, (E)-3-(2-((4-((S)-2-(4-chloro-2-fluorophenyl)-2-methylbenzo[d][1,3]dioxol-4-yl)piperidin-1-yl)methyl)-1-((R)-2-cyclopropoxypropyl)-1H-imidazol-5-yl)acrylic acid], the EC50 was determined as 0.0067 nM. For the molecule `CC1(C)C[C@H](Cn2c(/C=C/C(=O)O)cnc2CN2CCC(c3cccc4c3O[C@@](C)(c3ccc(Cl)cc3F)O4)CC2)CO1` [Compound 171b, (E)-3-(2-((4-((S)-2-(4-chloro-2-fluorophenyl)-2-methylbenzo[d][1,3]dioxol-4-yl)piperidin-1-yl)methyl)-1-(((R)-5,5-dimethyltetrahydrofuran-3-yl)methyl)-1H-imidazol-5-yl)acrylic acid], the EC50 is 17 nM. For `CO[C@@H](C)Cn1c(/C=C/C(=O)O)cnc1CN1CCC(c2cccc3c2O[C@@](C)(c2ccc(Cl)cc2F)O3)CC1` [Compound 172a, (E)-3-(2-((4-((S)-2-(4-chloro-2-fluorophenyl)-2-methylbenzo[d][1,3]dioxol-4-yl)piperidin-1-yl)methyl)-1-((S)-2-methoxypropyl)-1H-imidazol-5-yl)acrylic acid], the EC50 is 0.048 nM. Regarding `CC1(c2ccc(Cl)cc2F)Oc2cccc(C3CCN(Cc4ncc(/C=C/C(=O)O)n4CC4CN(S(C)(=O)=O)C4)CC3)c2O1` (stereo not drawn) [Compound 174, (E)-3-(2-((4-(2-(4-chloro-2-fluorophenyl)-2-methylbenzo[d][1,3]dioxol-4-yl)piperidin-1-yl)methyl)-1-((1-(methylsulfonyl)azetidin-3-yl)methyl)-1H-imidazol-5-yl)acrylic acid], the EC50 came out at 6.4 nM. As for `CC(=O)N(C)CCn1c(/C=C/C(=O)O)cnc1CN1CCC(c2cccc3c2OC(C)(c2ccc(Cl)cc2F)O3)CC1` (stereo not drawn) [Compound 175, (E)-3-(2-((4-(2-(4-chloro-2-fluorophenyl)-2-methylbenzo[d][1,3]dioxol-4-yl)piperidin-1-yl)methyl)-1-(2-(N-methylacetamido)ethyl)-1H-imidazol-5-yl)acrylic acid], the concentration giving a half-maximal response (EC50) came out at 0.047 nM. In the case of `CN(CCn1c(/C=C/C(=O)O)cnc1CN1CCC(c2cccc3c2OC(C)(c2ccc(Cl)cc2F)O3)CC1)S(C)(=O)=O` (stereo not drawn) [Compound 176, (E)-3-(2-((4-(2-(4-chloro-2-fluorophenyl)-2-methylbenzo[d][1,3]dioxol-4-yl)piperidin-1-yl)methyl)-1-(2-(N-methylmethylsulfonamido)ethyl)-1H-imidazol-5-yl)acrylic acid] it was 0.058 nM; in that of `CC1(c2ccc(Cl)cc2F)Oc2cccc(C3CCN(Cc4ncc(/C=C/C(=O)O)n4CC4CC(O)C4)CC3)c2O1` (stereo not drawn) [Compound 177, (E)-3-(2-((4-(2-(4-chloro-2-fluorophenyl)-2-methylbenzo[d][1,3]dioxol-4-yl)piperidin-1-yl)methyl)-1-((3-hydroxycyclobutyl)methyl)-1H-imidazol-5-yl)acrylic acid], 0.18 nM; in that of `CC1(c2ccc(Cl)cc2F)Oc2cccc(C3CCN(Cc4ncc(/C=C/C(=O)O)n4C4CC(O)C4)CC3)c2O1` (stereo not drawn) [Compound 178, (E)-3-(2-((4-(2-(4-chloro-2-fluorophenyl)-2-methylbenzo[d][1,3]dioxol-4-yl)piperidin-1-yl)methyl)-1-(3-hydroxycyclobutyl)-1H-imidazol-5-yl)acrylic acid], 1.2 nM. With `CC1(c2ccc(Cl)cc2F)Oc2cccc(N3CCN(Cc4ncc(/C=C/C(=O)O)n4C[C@@H]4CCO4)CC3)c2O1` (stereo partly drawn) [Compound 179, (E)-3-(2-((4-(2-(4-chloro-2-fluorophenyl)-2-methylbenzo[d][1,3]dioxol-4-yl)piperazin-1-yl)methyl)-1-(((S)-oxetan-2-yl)methyl)-1H-imidazol-5-yl)acrylic acid], the EC50 stood at 0.036 nM. As for `C[C@H]1CN(c2cccc3c2OC(C)(c2ccc(Cl)cc2F)O3)CCN1Cc1ncc(/C=C/C(=O)O)n1C[C@@H]1CCO1` (stereo partly drawn) [Compound 180, (E)-3-(2-(((2S)-4-(2-(4-chloro-2-fluorophenyl)-2-methylbenzo [d][1,3]dioxol-4-yl)-2-methylpiperazin-1-yl)methyl)-1-(((S)-oxetan-2-yl)methyl)-1H-imidazol-5-yl)acrylic acid], the EC50 turned out to be 0.026 nM. In the case of `CC1(c2ccc(Cl)cc2F)Oc2cccc(C3CCN(Cc4ncc(/C=C/C(=O)O)n4Cc4ccno4)CC3)c2O1` (stereo not drawn) [Compound 181, (E)-3-(2-((4-(2-(4-chloro-2-fluorophenyl)-2-methylbenzo[d][1,3]dioxol-4-yl)piperidin-1-yl)methyl)-1-(isoxazol-5-ylmethyl)-1H-imidazol-5-yl)acrylic acid] it was 4.1 nM; in that of `CC1(c2ccc(Cl)cc2F)Oc2cccc(C3CCN(Cc4nc(/C=C/C(=O)O)cn4Cc4ccno4)CC3)c2O1` (stereo not drawn) [Compound 182, (E)-3-(2-((4-(2-(4-chloro-2-fluorophenyl)-2-methylbenzo[d][1,3]dioxol-4-yl)piperidin-1-yl)methyl)-1-(isoxazol-5-ylmethyl)-1H-imidazol-4-yl)acrylic acid], 93 nM; in that of `CC1(c2ccc(Cl)cc2F)Oc2cccc(C3CCN(Cc4ncc(/C=C/C(=O)O)n4Cc4ncco4)CC3)c2O1` (stereo not drawn) [Compound 183, (E)-3-(2-((4-(2-(4-chloro-2-fluorophenyl)-2-methylbenzo[d][1,3]dioxol-4-yl)piperidin-1-yl)methyl)-1-(oxazol-2-ylmethyl)-1H-imidazol-5-yl)acrylic acid], 0.015 nM. Consider `CCc1ncoc1Cn1c(/C=C/C(=O)O)cnc1CN1CCC(c2cccc3c2OC(C)(c2ccc(Cl)cc2F)O3)CC1` (stereo not drawn) [Compound 184, (E)-3-(2-((4-(2-(4-chloro-2-fluorophenyl)-2-methylbenzo[d][1,3]dioxol-4-yl)piperidin-1-yl)methyl)-1-((4-ethyloxazol-5-yl)methyl)-1H-imidazol-5-yl)acrylic acid], for which the EC50 came out at 0.24 nM. On to `CCC(O)Cn1c(/C=C/C(=O)O)cnc1CN1CCC(c2cccc3c2OC(C)(c2ccc(Cl)cc2F)O3)CC1` (stereo not drawn) [Compound 185, (E)-3-(2-((4-(2-(4-chloro-2-fluorophenyl)-2-methylbenzo[d][1,3]dioxol-4-yl)piperidin-1-yl)methyl)-1-(2-hydroxybutyl)-1H-imidazol-5-yl)acrylic acid], for which the EC50 worked out at 20 nM. With `O=C(O)/C=C/c1cnc(CN2CCC(c3cccc4c3OC[C@@H](c3ccc(Cl)cc3)O4)CC2)n1Cc1ncco1` [Compound 186a, (R,E)-3-(2-((4-(2-(4-chlorophenyl)-2,3-dihydrobenzo [b][1,4]dioxin-5-yl)piperidin-1-yl)methyl)-1-(oxazol-2-ylmethyl)-1H-imidazol-5-yl)acrylic acid], the concentration for a half-maximal effect (EC50) was determined as 0.41 nM.

Regarding `O=C(O)/C=C/c1cnc(CN2CCC(c3cccc4c3OC[C@@H](c3ccc(Cl)cc3)O4)CC2)n1Cc1ccno1` [Compound 187a, (R,E)-3-(2-((4-(2-(4-chlorophenyl)-2,3-dihydrobenzo [b][1,4]dioxin-5-yl)piperidin-1-yl)methyl)-1-(isoxazol-5-ylmethyl)-1H-imidazol-5-yl)acrylic acid], the EC50 is more than 1000 nM. Regarding `CCc1ncsc1Cn1c(/C=C/C(=O)O)cnc1CN1CCC(c2cccc3c2OC(C)(c2ccc(Cl)cc2F)O3)CC1` (stereo not drawn) [Compound 188, (E)-3-(2-((4-(2-(4-chloro-2-fluorophenyl)-2-methylbenzo[d][1,3]dioxol-4-yl)piperidin-1-yl)methyl)-1-((4-ethylthiazol-5-yl)methyl)-1H-imidazol-5-yl)acrylic acid], the EC50 turned out to be 0.22 nM.
